Among the data in patent publication US11028090B2 (Dong Wha Pharm. Co., Ltd., priority 2017, dated 2021) are IC50 values, retold here.

Where two headings read alike, the source gives them in different places.

In assay [1] the target is BRD4 (BD1+BD2) bromodomain (Homo sapiens (Human), UniProt O60885). Description: BRD4 binding inhibition (AlphaScreen, GST-BRD4 vs tetraacetylated histone H4 peptide). The essentials:
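AlphaScreen read after 30 min dark incubation at room temperature with glutathione acceptor/streptavidin donor beads (10 μg/ml each). The beads were added to compound plus 100 nM biotin-H4 (K5,8,12,16-acetyl) peptide and 100 nM GST-BRD4 BD1+BD2 in pH 7.4 HEPES/Tween/BSA/DTT buffer.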
On the technique in general: Bead proximity is the source of the signal in Alpha formats.

In assay [2] the test system is thymus cancer cells (Ty-82 cells). Description: Cytotoxicity to thymus cancer cells (Ty-82 cells), WST-1. Conditions: Homo sapiens, TY82, 72 h.
Assay [3] concerns acute myelogenous leukemia cells (MV-4-11 cells). Description: Cytotoxicity to acute myelogenous leukemia cells (MV-4-11 cells), CCK-8. The conditions noted are these: Homo sapiens, MV4-11, 72 h.
The mark [4] stands for this setting: GST-BRD4 (BD1+BD2) / biotinylated acetyl-histone H4 (Lys5,8,12,16) peptide, read-out: IC50, BRD4 binding inhibition.
Setting [5] is: GST-BRD4 (BD1+BD2) vs biotinylated acetyl-histone H4 peptide, AlphaScreen, read-out: BRD4 IC50.
Setting [6] is: read-out: IC50, cytotoxicity against thymus cancer cells.
Where [7] appears, read: read-out: Ty-82 Cytotoxicity IC50.
[8] abbreviates: read-out: IC50, cytotoxicity against acute myelogenous leukemia cells.
The mark [9] stands for this setting: read-out: MV-4-11 Cytotoxicity IC50.

What is called IC50 is the point on the concentration scale where inhibition reaches its midpoint. On to `COc1cc2nc(NCCCCNC(=O)CC(C)C)c3nnc(C)n3c2cc1OC` [Example 74, N-[4-(7,8-dimethoxy-1-methyl-[1,2,4]triazolo[4,3-a]quinoxaline-4-ylamino)-butyl]-3-methyl-butyramide], for which the concentration for half-maximal inhibition (IC50) was at most 50 nM in assay [1] (setting [4]); 28 nM in assay [1] (setting [5]); at most 500 nM in assay [2] (setting [6]); 170 nM in assay [2] (setting [7]); at most 200 nM in assay [3] (setting [8]); 110 nM in assay [3] (setting [9]).
As for `COc1cc2nc(NCCCCNC(=O)CC(C)(C)C)c3nnc(C)n3c2cc1OC` [Example 75, N-[4-(7,8-dimethoxy-1-methyl-[1,2,4]triazolo[4,3-a]quinoxaline-4-ylamino)-butyl]-3,3-dimethyl-butyramide], the IC50 was at most 50 nM in assay [1] (setting [4]), 28 nM in assay [1] (setting [5]), 790 nM in assay [2] (setting [7]) and 340 nM in assay [3] (setting [9]).
In the case of `CCC(C)C(=O)NCCCCNc1nc2cc(OC)c(OC)cc2n2c(C)nnc12` (stereo not drawn) [Example 77, N-[4-(7,8-dimethoxy-1-methyl-[1,2,4]triazolo[4,3-a]quinoxaline-4-ylamino)-butyl]-2-methyl-butyramide], the IC50 in assay [1] (setting [4]) is at most 50 nM; in assay [1] (setting [5]), 22 nM; in assay [2] (setting [7]) it was 920 nM; in assay [3] (setting [8]), at most 200 nM; in assay [3] (setting [9]), 150 nM.
For `COc1cc2nc(NCCCCNC(=O)Cc3cccs3)c3nnc(C)n3c2cc1OC` [Example 84, N-[4-(7,8-dimethoxy-1-methyl-[1,2,4]triazolo[4,3-a]quinoxaline-4-ylamino)-butyl]-2-thiophene-2-yl-acetamide], the IC50 in assay [1] (setting [4]) was at most 50 nM; in assay [1] (setting [5]), 14 nM; in assay [2] (setting [6]) it was at most 500 nM; in assay [2] (setting [7]), 27 nM; in assay [3] (setting [8]) it was at most 200 nM; in assay [3] (setting [9]), 10 nM.
In the case of `COc1cc2nc(NCCCCNC(=O)NC(C)(C)C)c3nnc(C)n3c2cc1OC` [Example 88, 1-tert-butyl-3-[4-(7,8-dimethoxy-1-methyl-[1,2,4]triazolo[4,3-a]quinoxaline-4-ylamino)-butyl]-urea], the IC50 in assay [1] (setting [4]) was at most 50 nM; in assay [1] (setting [5]), 18 nM; in assay [2] (setting [7]), 970 nM; in assay [3] (setting [9]), 510 nM.
As for `COc1cc2nc(NCCCCNC(=O)NC(C)C)c3nnc(C)n3c2cc1OC` [Example 90], the IC50 is 63 nM in assay [1] (setting [5]), at most 500 nM in assay [2] (setting [6]), 400 nM in assay [2] (setting [7]) and 300 nM in assay [3] (setting [9]).
On to `COc1cc2nc(NCCCCNC(=O)NC3CCCCC3)c3nnc(C)n3c2cc1OC` [Example 93, 1-cyclohexyl-3-[4-(7,8-dimethoxy-1-methyl-[1,2,4]triazolo[4,3-a]quinoxaline-4-ylamino)-butyl]-urea], for which the IC50 was at most 50 nM in assay [1] (setting [4]), 39 nM in assay [1] (setting [5]), 560 nM in assay [2] (setting [7]) and 340 nM in assay [3] (setting [9]).
For the molecule `COc1cc2nc(NCCCCNC(=O)c3ccccc3Cl)c3nnc(C)n3c2cc1OC` [Example 99, 2-chloro-N-[4-(7,8-dimethoxy-1-methyl-[1,2,4]triazolo[4,3-a]quinoxaline-4-ylamino)-butyl]-benzamide], the concentration for half-maximal inhibition (IC50) is at most 50 nM in assay [1] (setting [4]), 21 nM in assay [1] (setting [5]), 550 nM in assay [2] (setting [7]) and 230 nM in assay [3] (setting [9]).
Regarding `COc1cc2nc(NCCCCNC(=O)c3cccc(Cl)c3Cl)c3nnc(C)n3c2cc1OC` [Example 102, 2,3-dichloro-N-[4-(7,8-dimethoxy-1-methyl-[1,2,4]triazolo[4,3-a]quinoxaline-4-ylamino)-butyl]-benzamide], the concentration for half-maximal inhibition (IC50) in assay [1] (setting [4]) was at most 50 nM; in assay [2] (setting [7]), 840 nM; in assay [3] (setting [9]) it was 360 nM.
As for `COc1cc2nc(NCCCCNC(=O)c3ccc(C)nc3Cl)c3nnc(C)n3c2cc1OC` [Example 108, 2-chloro-N-[4-(7,8-dimethoxy-1-methyl-[1,2,4]triazolo[4,3-a]quinoxaline-4-ylamino)-butyl]-6-methyl-nicotinamide], the IC50 in assay [1] (setting [4]) was at most 50 nM; in assay [1] (setting [5]) it was 17 nM; in assay [2] (setting [6]), at most 500 nM; in assay [2] (setting [7]) it was 370 nM; in assay [3] (setting [9]) it was 510 nM.
Consider `COc1c(C)ccc2c1nc(NCCCCNC(=O)CC(C)C)c1nnc(C)n12` [Example 135, N-[4-(6-methoxy-1,7-dimethyl-[1,2,4]triazolo[4,3-a]quinoxaline-4-ylamino)-butyl]-3-methyl-butyramide], for which the IC50 amounted to 61 nM in assay [1] (setting [5]), 730 nM in assay [2] (setting [7]) and 360 nM in assay [3] (setting [9]).
With `COc1cc(C)c2nc(NCCCCNC(=O)OC(C)C)c3nnc(C)n3c2c1` [Example 161, [4-(8-methoxy-1,6-dimethyl-[1,2,4]triazolo[4,3-a]quinoxaline-4-ylamino)-butyl]-carbamic acid isopropylester], the IC50 in assay [1] (setting [4]) was at most 10 nM; in assay [2] (setting [7]) it was 810 nM; in assay [3] (setting [8]), at most 200 nM; in assay [3] (setting [9]), 80 nM.
For `COCCOc1cc2nc(NCCCCNC(=O)OC(C)C)c3nnc(C)n3c2cc1OCCOC` [Example 165, {4-[7,8-bis-(2-methoxy-ethoxy)-1-methyl-[1,2,4]triazolo[4,3-a]quinoxaline-4-ylamino]-butyl}-carbamic acid isopropylester], the IC50 in assay [1] (setting [4]) was at most 50 nM; in assay [1] (setting [5]) it was 26 nM; in assay [2] (setting [7]) it was 580 nM; in assay [3] (setting [9]) it was 220 nM.
As for `COCCOc1cc2nc(NCCCCNC(=O)CC(C)C)c3nnc(C)n3c2cc1OCCOC` [Example 166, N-{4-[7,8-bis-(2-methoxy-ethoxy)-1-methyl-[1,2,4]triazolo[4,3-a]quinoxaline-4-ylamino]-butyl}-3-methyl-butyramide], the IC50 was at most 50 nM in assay [1] (setting [4]); 20 nM in assay [1] (setting [5]); 580 nM in assay [2] (setting [7]); at most 200 nM in assay [3] (setting [8]); 70 nM in assay [3] (setting [9]).
With `COCCOc1cc2nc(NCCCCNC(=O)CC(C)(C)C)c3nnc(C)n3c2cc1OCCOC` [Example 167, N-{4-[7,8-bis-(2-methoxy-ethoxy)-1-methyl-[1,2,4]triazolo[4,3-a]quinoxaline-4-ylamino]-butyl}-3,3-dimethyl-butyramide], the concentration for half-maximal inhibition (IC50) in assay [1] (setting [4]) is at most 50 nM; in assay [1] (setting [5]) it was 40 nM; in assay [2] (setting [7]), 880 nM; in assay [3] (setting [9]), 510 nM.
Take `COCCOc1cc2nc(NCCCCNC(=O)OCC(C)C)c3nnc(C)n3c2cc1OCCOC` [Example 168, {4-[7,8-bis-(2-methoxy-ethoxy)-1-methyl-[1,2,4]triazolo[4,3-a]quinoxaline-4-ylamino]-butyl}-carbamic acid isobutylester]: the IC50 in assay [1] (setting [4]) was at most 50 nM; in assay [1] (setting [5]), 16 nM; in assay [2] (setting [7]), 600 nM; in assay [3] (setting [8]), at most 200 nM; in assay [3] (setting [9]), 90 nM.
`Cc1nnc2c(NCCCCNC(=O)CC(C)C)nc3cc4c(cc3n12)OCCO4` [Example 181, 3-methyl-N-[4-(1-methyl-8,9-dihydro-7,10-dioxa-2,3,5,11b-tetraaza-cyclopenta[a]anthracene-4-ylamino)-butyl]-butyramide]: the IC50 in assay [1] (setting [4]) is at most 50 nM; in assay [1] (setting [5]), 17 nM; in assay [2] (setting [6]), at most 500 nM; in assay [2] (setting [7]) it was 300 nM; in assay [3] (setting [8]), at most 200 nM; in assay [3] (setting [9]), 50 nM.
For `Cc1nnc2c(NCCCCNC(=O)c3ccccc3)nc3cc4c(cc3n12)OCCO4` [Example 186, N-[4-(1-methyl-8,9-dihydro-7,10-dioxa-2,3,5,11b-tetraaza-cyclopenta[a]anthracene-4-ylamino)-butyl]-benzamide], the IC50 was at most 50 nM in assay [1] (setting [4]); 22 nM in assay [1] (setting [5]); at most 500 nM in assay [2] (setting [6]); 340 nM in assay [2] (setting [7]); 680 nM in assay [3] (setting [9]).
Consider `Cc1nnc2c(NCCCCNC(=O)OC3CCCC3)nc3cc4c(cc3n12)OCCO4` [Example 190, [4-(1-methyl-8,9-dihydro-7,10-dioxa-2,3,5,11b-tetraaza-cyclopenta[a]anthracene-4-ylamino)-butyl]-carbamic acid cyclopentylester], for which the IC50 in assay [1] (setting [4]) was at most 50 nM; in assay [1] (setting [5]), 28 nM; in assay [2] (setting [7]) it was 650 nM; in assay [3] (setting [8]), at most 200 nM; in assay [3] (setting [9]) it was 90 nM.
Consider `Cc1nnc2c(NCCCCNC(=O)Oc3ccccc3)nc3cc4c(cc3n12)OCCO4` [Example 191, [4-(1-methyl-8,9-dihydro-7,10-dioxa-2,3,5,11b-tetraaza-cyclopenta[a]anthracene-4-ylamino)-butyl]-carbamic acid phenylester], for which the IC50 in assay [1] (setting [5]) is 10 nM; in assay [1] (IC50, BRD4 binding inhibition, GST-BRD4 (BD1+BD2) / biotinylated acetyl-histone H4 (Lys5,8,12,16) peptide), at most 10 nM; in assay [2] (setting [6]), at most 500 nM; in assay [2] (setting [7]), 310 nM; in assay [3] (setting [8]) it was at most 200 nM; in assay [3] (setting [9]), 90 nM.
Take `Cc1nnc2c(NCCCCNC(=O)NC(C)C)nc3cc4c(cc3n12)OCCO4` [Example 192, 1-isopropyl-3-[4-(1-methyl-8,9-dihydro-7,10-dioxa-2,3,5,11b-tetraaza-cyclopenta[a]anthracene-4-ylamino)-butyl]-urea]: the IC50 in assay [1] (setting [4]) was at most 50 nM; in assay [1] (setting [5]), 34 nM; in assay [2] (setting [7]), 680 nM; in assay [3] (setting [9]), 420 nM.
